Data reported in patent US20260200884A1, “COMPOUND FOR TREATING GOUT OR HYPERURICEMIA” (Arthrosi Therapeutics, Inc., priority 2019, published 2026).

Assays:
[1] = cited from earlier work
[2] = Solubility of the test article in HBSS assay buffer; format: physicochemical; conditions: all tested concentrations 0.01-10 μM; highest tested concentration 10 μM
Description: Before the experiment, the medium was removed and the cells were washed twice with 100 μL of HBSS without Cl^−. Uptake experiments were carried out at 37±1° C. in 50 μL of HBSS without Cl^−, pH 7.4 containing the probe substrate (20 μM uric acid) and the test article (TA) or solvent.
Results: Compound 1 was soluble in HBSS buffer at all tested concentrations; the highest tested concentration being 10 μM.

Row | SMILES | serum uric acid (sUA) level reached ([1]; chronic therapy, patients) | hepatotoxicity ([1]; in certain patients) | solubility in HBSS buffer [2]
1 | CCc1oc2ccccc2c1C(=O)c1cc(Br)c(O)c(Br)c1 [Benzbromarone] | < 6 mg/dL | associated with hepatotoxicity | 
2 | [2H]c1c(O)c([2H])c2oc(C(C)O)c(C(=O)c3cc(Br)c(O)c(Br)c3)c2c1[2H] (stereo not drawn) [Compound 1, (3,5-dibromo-4-hydroxyphenyl)(6-hydroxy-2-(1-hydroxyethyl)benzofuran-3-yl-4,5,7-d3)methanone] |  |  | soluble
